For 21 compounds, TGI results are on record in PubChem BioAssay (NCI).

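Compound exposure: 48 hours, 5 concentrations, 96-well plates. At the TGI there is no net growth.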

Some test systems named below: SF-539 CNS; RPMI-8226 leukemia; EKVX NSCLC; DU-145 prostate; MDA-MB-435; HOP-92 NSCLC; OVCAR-3 ovarian; OVCAR-8 ovarian; NCI-H226 lung; LOX IMVI melanoma.
Holding throughout (assay): inhibition of tumour cell growth, NCI panel, 48 h

With `C[C@H](C/C=C/C(C)(C)O)[C@H]1CC[C@@]2(C)[C@@H]3CC[C@H]4C(C)(C)[C@@H](O)CC[C@@]45C[C@@]35CC[C@]12C`, the TGI in the assay with SF-539 CNS was determined as 30.8 µM; with RPMI-8226 leukemia it was 52.8 µM; with EKVX NSCLC it was 34.7 µM; in the assay with DU-145 prostate, 28.8 µM; with MDA-MB-435, 50.7 µM; with HOP-92 NSCLC it was 26.5 µM. Besides, the TGI is more than 100 µM with OVCAR-3 ovarian, 33.4 µM with OVCAR-8 ovarian, 38.5 µM with NCI-H226 lung and 29.4 µM in the assay with LOX IMVI melanoma.
As for `CNc1ncc(-c2nnnn2-c2ccccc2)c(CN(C)C)n1`, the TGI in the assay on SF-539 CNS, in the assay on RPMI-8226 leukemia, in the assay on EKVX NSCLC, in the assay with DU-145 prostate, in the assay on MDA-MB-435 and with HOP-92 NSCLC was more than 100 µM in each case. The TGI with OVCAR-3 ovarian, in the assay on OVCAR-8 ovarian, in the assay on NCI-H226 lung and in the assay on LOX IMVI melanoma was more than 100 µM each time.
Regarding `CC1CC(=O)N(N(C)C)C(C#N)(C#N)C1(C#N)C#N` (stereo not drawn), the TGI in the assay with SF-539 CNS was found to be 59.1 µM; in the assay with RPMI-8226 leukemia it was 32 µM; in the assay with EKVX NSCLC it was 57.5 µM; with DU-145 prostate, 32.5 µM; with MDA-MB-435, 32.9 µM; in the assay with HOP-92 NSCLC, 26 µM. The TGI in the assay with OVCAR-3 ovarian stood at 44.6 µM; in the assay on OVCAR-8 ovarian, 45.2 µM; in the assay with NCI-H226 lung it was 67 µM; in the assay with LOX IMVI melanoma, 42.7 µM.
As to `C[Si](C)(c1ccccc1)[C@H]1CCCC=C1CCNC1c2ccccc2CCc2ccccc21`, the TGI in the assay with SF-539 CNS, in the assay with RPMI-8226 leukemia, in the assay with EKVX NSCLC, in the assay on DU-145 prostate, in the assay with MDA-MB-435 and with HOP-92 NSCLC was more than 100 µM in each case. In addition, the TGI in the assay on OVCAR-3 ovarian, with OVCAR-8 ovarian, with NCI-H226 lung and with LOX IMVI melanoma was more than 100 µM in each case.
For `CCc1ccccc1NNc1cc(=O)[nH]c(=O)[nH]1`, the TGI in the assay on SF-539 CNS was 52.2 µM; in the assay with RPMI-8226 leukemia, more than 100 µM; with EKVX NSCLC it was 33.9 µM; in the assay with DU-145 prostate, more than 100 µM; in the assay on MDA-MB-435 it was 34.1 µM; with HOP-92 NSCLC, 31.3 µM. For the same compound, the TGI in the assay on OVCAR-3 ovarian was 30.8 µM; with OVCAR-8 ovarian, 51.6 µM; with NCI-H226 lung, 35 µM; in the assay on LOX IMVI melanoma it was 29.4 µM.
On to `C/C1=C\C=C(\C(C)C)CC/C(C(=O)O)=C\CC/C(C)=C/CC1`, for which the TGI with SF-539 CNS is 34.8 µM; in the assay with RPMI-8226 leukemia it was 42.2 µM; with EKVX NSCLC, 78.7 µM; in the assay with DU-145 prostate, more than 100 µM; in the assay on MDA-MB-435, 56.4 µM; in the assay on HOP-92 NSCLC it was 40.5 µM. Further, the TGI in the assay on OVCAR-3 ovarian was 31.4 µM; in the assay with OVCAR-8 ovarian it was more than 100 µM; with NCI-H226 lung, 43.3 µM; in the assay on LOX IMVI melanoma it was 49.5 µM.
Take `Cc1ccccc1NC(=O)Cc1csc2[n+]1C(=O)/C(=C/c1ccc([N+](=O)[O-])cc1)S2`: the TGI with SF-539 CNS, in the assay with EKVX NSCLC, in the assay with DU-145 prostate, in the assay with MDA-MB-435, with HOP-92 NSCLC and in the assay on OVCAR-3 ovarian was more than 100 µM in each case. Moreover, the TGI in the assay with OVCAR-8 ovarian, in the assay with NCI-H226 lung and in the assay on LOX IMVI melanoma was more than 100 µM in each case.
In the case of `COc1cc(-c2ccccc2N)c2cccnc2c1OC`, the TGI came out at 21.6 µM in the assay on SF-539 CNS; 14.8 µM with RPMI-8226 leukemia; 13.8 µM in the assay with EKVX NSCLC; 10.5 µM with DU-145 prostate; 21.1 µM with MDA-MB-435; 22.3 µM in the assay on HOP-92 NSCLC. The TGI in the assay with OVCAR-3 ovarian was 16.1 µM; in the assay with NCI-H226 lung it was 26.6 µM; in the assay with LOX IMVI melanoma it was 15.3 µM.
Turning to `CC(C)C1N(C)c2ccc(Cl)cc2[C@H]2c3ccccc3CCN12` (stereo partly drawn), the TGI in the assay on SF-539 CNS is more than 100 µM; in the assay with RPMI-8226 leukemia, 79.8 µM; with EKVX NSCLC it was more than 100 µM; with DU-145 prostate, more than 100 µM; in the assay with MDA-MB-435, 61.6 µM; in the assay on HOP-92 NSCLC, more than 100 µM. The TGI in the assay on OVCAR-3 ovarian is 70.3 µM; with OVCAR-8 ovarian it was more than 100 µM; in the assay with NCI-H226 lung, 67.9 µM; with LOX IMVI melanoma it was 55.7 µM.
For the compound `COc1ccc(-n2sc3ncccc3c2=O)cc1`, the TGI in the assay on SF-539 CNS is 37.7 µM; with RPMI-8226 leukemia it was more than 100 µM; with EKVX NSCLC it was 28.4 µM; in the assay with DU-145 prostate, more than 100 µM; in the assay on MDA-MB-435 it was 66.7 µM; in the assay on HOP-92 NSCLC, 58.6 µM. Moreover, the TGI with OVCAR-3 ovarian was 60.8 µM; in the assay on OVCAR-8 ovarian, 70.3 µM; in the assay with NCI-H226 lung it was more than 100 µM; with LOX IMVI melanoma, more than 100 µM.
As for `C[Si](C)(C)C1=C([Si](C)(C)C)C(Cl)(Cl)C1=O`, the TGI in the assay with SF-539 CNS worked out at 12.7 µM; in the assay on RPMI-8226 leukemia, 3.99 µM; in the assay with EKVX NSCLC, 16.2 µM; in the assay with DU-145 prostate, 23.3 µM; in the assay with MDA-MB-435 it was 7.22 µM; with HOP-92 NSCLC, 5.55 µM. In addition, the TGI in the assay on OVCAR-3 ovarian turned out to be 8.15 µM; in the assay with OVCAR-8 ovarian, 9.78 µM; in the assay with NCI-H226 lung, 8.86 µM; in the assay on LOX IMVI melanoma, 3.51 µM.
For `CCN(CC)c1ccc(/C=C/C=C2C(=O)NC(=S)NC2=O)cc1`, the TGI with SF-539 CNS was 36.6 µM; in the assay on RPMI-8226 leukemia it was more than 100 µM; with EKVX NSCLC, more than 100 µM; with DU-145 prostate, more than 100 µM; with MDA-MB-435, 34.7 µM; in the assay on HOP-92 NSCLC, more than 100 µM. In addition, the TGI with OVCAR-3 ovarian is more than 72.6 µM; in the assay on OVCAR-8 ovarian it was 42.4 µM; with NCI-H226 lung, 99 µM; in the assay on LOX IMVI melanoma it was more than 100 µM.
Consider `O=C(CCc1ccccc1)On1c(-c2ccccc2)nc2ccccc2c1=S`, for which the TGI is 20.7 µM with SF-539 CNS; more than 100 µM in the assay on RPMI-8226 leukemia; 52.1 µM in the assay on EKVX NSCLC; more than 100 µM in the assay with DU-145 prostate; more than 100 µM in the assay on MDA-MB-435; more than 100 µM in the assay on HOP-92 NSCLC. Also, the TGI in the assay with OVCAR-3 ovarian is more than 100 µM; in the assay on OVCAR-8 ovarian, 64.6 µM; in the assay with NCI-H226 lung, 29.9 µM; in the assay on LOX IMVI melanoma it was 83.6 µM.
Turning to `COc1ccc(C(C2=C(O)COC2=O)c2cc3c(cc2O)OCO3)cc1OC` (stereo not drawn), the TGI with SF-539 CNS, in the assay with RPMI-8226 leukemia, in the assay with EKVX NSCLC, in the assay with DU-145 prostate, in the assay on MDA-MB-435 and with HOP-92 NSCLC was more than 100 µM throughout. Moreover, the TGI with OVCAR-3 ovarian, with OVCAR-8 ovarian, in the assay with NCI-H226 lung and in the assay on LOX IMVI melanoma was more than 100 µM each time.
Take `O=[N+]([O-])c1ccc(O)c(/C=N/NC(=S)N2CCCCC2)c1`: the TGI in the assay with SF-539 CNS is more than 100 µM; in the assay on RPMI-8226 leukemia, more than 52.4 µM; with EKVX NSCLC, 15.3 µM; in the assay with DU-145 prostate it was more than 52.5 µM; with MDA-MB-435, more than 83 µM; in the assay with HOP-92 NSCLC, 33 µM. For the same compound, the TGI in the assay on OVCAR-3 ovarian is more than 100 µM; with OVCAR-8 ovarian, 4.66 µM; with NCI-H226 lung, 5.94 µM; with LOX IMVI melanoma it was 17.1 µM.
With `C[N+]1(CCN[N+]2(C)CCCCC2)CCc2ccccc2C1` (stereo not drawn), the TGI with SF-539 CNS, with RPMI-8226 leukemia, in the assay with EKVX NSCLC, in the assay on DU-145 prostate, in the assay with MDA-MB-435 and in the assay on HOP-92 NSCLC was more than 100 µM in each case. Moreover, the TGI with OVCAR-3 ovarian, with OVCAR-8 ovarian, in the assay on NCI-H226 lung and in the assay with LOX IMVI melanoma was more than 100 µM in each case.
Turning to `COc1ccc(/C=C/C2=NN(c3cccc(S(=O)(=O)O)c3)C3(C2)SCC(=O)N3c2nc3ccccc3s2)cc1` (stereo not drawn), the TGI with SF-539 CNS was more than 100 µM; in the assay on RPMI-8226 leukemia, 84.5 µM; in the assay with EKVX NSCLC, more than 100 µM; in the assay on DU-145 prostate, more than 100 µM; with MDA-MB-435 it was more than 100 µM; with HOP-92 NSCLC, more than 100 µM. Moreover, the TGI in the assay with OVCAR-8 ovarian, with NCI-H226 lung and with LOX IMVI melanoma was more than 100 µM in each case.
For the compound `COc1ccccc1C[C@@H]1OC2(C=CC(=O)C=C2)O[C@H]1Cc1ccccc1OC`, the TGI in the assay with SF-539 CNS is 15.6 µM; in the assay on RPMI-8226 leukemia, 6.24 µM; in the assay with EKVX NSCLC it was 13 µM; with DU-145 prostate, more than 50 µM; in the assay on MDA-MB-435 it was 38.2 µM; in the assay with HOP-92 NSCLC, 20.1 µM. Besides, the TGI in the assay on OVCAR-3 ovarian was determined as 18.9 µM; in the assay on OVCAR-8 ovarian, 3.46 µM; in the assay on NCI-H226 lung, 16.8 µM; in the assay on LOX IMVI melanoma it was 13.8 µM.
Take `COc1ccc(/C=N/n2cnc3[nH]c(C)c(Cc4ccccc4)c3c2=N)cc1`: the TGI with RPMI-8226 leukemia, in the assay with EKVX NSCLC, in the assay on DU-145 prostate, in the assay on MDA-MB-435, in the assay with HOP-92 NSCLC and in the assay with OVCAR-3 ovarian was more than 100 µM throughout. The TGI in the assay on OVCAR-8 ovarian and in the assay with NCI-H226 lung was more than 100 µM each time.
As to `CC(=O)N1CCn2c1nc1cc(Cl)ccc12`, the TGI is more than 100 µM in the assay with SF-539 CNS; more than 100 µM in the assay on EKVX NSCLC; more than 100 µM in the assay on DU-145 prostate; more than 100 µM in the assay with MDA-MB-435; 81.4 µM in the assay with HOP-92 NSCLC; more than 100 µM in the assay with OVCAR-3 ovarian. Besides, the TGI in the assay with OVCAR-8 ovarian, in the assay with NCI-H226 lung and in the assay on LOX IMVI melanoma was more than 100 µM in each case.
For the compound `COC(OC)[C@@H]1OC[C@@H](O)[C@@H]1n1cnc2c(N)ncnc21`, the TGI with SF-539 CNS, in the assay on RPMI-8226 leukemia, in the assay on EKVX NSCLC, with DU-145 prostate, with MDA-MB-435 and in the assay on HOP-92 NSCLC was more than 100 µM in each case. The TGI in the assay on OVCAR-3 ovarian, in the assay with NCI-H226 lung and in the assay with LOX IMVI melanoma was more than 100 µM in each case.
